Experimental data as given in PMC5641865, “A screen for kinase inhibitors identifies antimicrobial imidazopyridine aminofurazans as specific inhibitors of the Listeria monocytogenes PASTA kinase PrkA” (The Journal of Biological Chemistry, 2017).
Like-named read-outs stand apart in the source and are kept apart here.

What was measured:
Type in all cases: biochemical
Stk1 kinase domain [1] = target: T1, Stk1 kinase domain (Staphylococcus aureus, UniProt A0A0H2XGG5); test: Kinase-Glo ATP depletion assay
T1 construct: gene pknB; cytosolic kinase domain, residues 1-348, pGEX-2T GST fusion from E. coli Rosetta BL21, GST cut off with thrombin; Mn2+ in place of Mg2+
T1 sequence (A0A0H2XGG5 entry or part of it): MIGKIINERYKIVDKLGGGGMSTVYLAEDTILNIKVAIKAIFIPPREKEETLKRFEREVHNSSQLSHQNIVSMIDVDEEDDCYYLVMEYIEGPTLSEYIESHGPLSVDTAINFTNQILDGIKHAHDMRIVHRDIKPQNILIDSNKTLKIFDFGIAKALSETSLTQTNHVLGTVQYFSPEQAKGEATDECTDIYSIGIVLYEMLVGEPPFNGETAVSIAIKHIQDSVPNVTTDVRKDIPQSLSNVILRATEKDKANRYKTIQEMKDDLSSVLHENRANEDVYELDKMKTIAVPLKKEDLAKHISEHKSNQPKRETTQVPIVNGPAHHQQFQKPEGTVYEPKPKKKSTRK

[2] = target: T2, PrkA kinase domain; PrkA(1-338) (Listeria monocytogenes, UniProt A0A0H3GI69); test: Kinase-Glo ATP depletion assay
T2 construct: gene LMRG_00967; cytosolic kinase domain, residues 1-338, pGEX-2T GST fusion from E. coli Rosetta BL21, GST cut off with thrombin
T2 sequence (A0A0H3GI69 entry or part of it): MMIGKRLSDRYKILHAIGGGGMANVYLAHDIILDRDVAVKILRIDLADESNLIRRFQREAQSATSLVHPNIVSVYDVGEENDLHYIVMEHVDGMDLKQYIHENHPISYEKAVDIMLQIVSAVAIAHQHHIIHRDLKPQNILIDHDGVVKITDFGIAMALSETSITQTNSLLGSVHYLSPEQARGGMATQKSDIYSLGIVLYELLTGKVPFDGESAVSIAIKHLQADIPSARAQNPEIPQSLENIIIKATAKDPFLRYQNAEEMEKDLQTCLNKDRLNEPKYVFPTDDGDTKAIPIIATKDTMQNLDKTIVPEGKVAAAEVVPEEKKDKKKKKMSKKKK
Text: Kinase-Glo ATP depletion assay on PrkA kinase domain; PrkA(1-338)

Stk1 kinase domain [3] = target: T1, Stk1 kinase domain; test: kinase inhibition assay (supplement)
[4] = read-out: Relative IC50 (95% CI)

Compound	IC50 [2, 4] [nM]	further results
CCn1c(-c2nonc2N)nc2c(C#CC(C)(C)O)ncc(OC[C@H]3CCCNC3)c21 [GSK690693]	840	IC50 (Stk1 kinase domain [1]): > 40000 nM
CCn1c(-c2nonc2N)nc2c(C#CC(C)(C)O)ncc(OC[C@@H]3CCCN3)c21 [GSK614526A]	–	IC50 [2]: 420 nM
O=C1Nc2ccccc2C1=C1Nc2ccccc2C1=NO [indirubin-3′-monoxime]	–	kinase inhibition assay (supplement) (Stk1 kinase domain [3]): Stk1 can be biochemically inhibited by the kinase inhibitor indirubin-3′-monoxime
CCn1c(-c2nonc2N)nc2c(C#CC(C)(C)O)ncc(OCC3CCNCC3)c21 [GSK554170A]	450	–
CCn1c(-c2nonc2N)nc2c(C#CC(C)(C)O)nc(OCCN)cc21 [GSK902056A]	410	–
